Values after ≈ are worked out from the molar mass of the structure shown.
Key:
Assay in all cases: MIC by agar plate dilution method on standard strains (Example 3)
Format in all cases: cell-based
Conditions in all cases: read-out: MIC
[1] = test system: Moraxella (Branhamella) catarrhalis ATCC25240
Method: (§1) Drug solutions at a concentration 10 times as high as the maximum applicable concentration were prepared as original solutions of test drugs given in Table 2 (as to solvents used for this purpose, reference should be made also to Table 2). Serial two-fold dilution series of the original solutions were prepared at desired stages, and 1 ml each of the diluted drug solutions was added to 9 ml of media given in Table 3 to prepare drug plates. […] • 1) Bacterial solutions stocked at −80° C. were inoculated on agar media (as to media used, reference should be made to Table 3), and then incubated at 37° C. overnight. When desired, subculturing was conducted once more on the same agar media (by overnight incubation at 37° C.). • 2) Colonies growing on the agar media were sampled by a platinum loop, suspended in liquid media (reference should be made to Table 3) and statically incubated at 37° C. for 18 hours (preculturing). • 3) Preculturing was continued up to McFarland 0.5 (McFarland 0.5=about 10^8 CFU/ml), and then the culture broths were diluted with Muellar Hinton Broth to make 10^6 CFU/ml. 5 μl each of the diluted solutions were inoculated on the above-mentioned drug plates by an inoculator Microplanter. […] Thus, bacterial solutions at about 10^8 CFU/ml can be easily prepared by use of McFarland 0.5. Bacterial solutions at such a turbidity are commercially available, but can be easily prepared.

[2] = test system: Moraxella (Branhamella) catarrhalis ATCC43617
Method: as §1

[3] = test system: Pseudomonas aeruginosa ATCC27853
Method: as §1

[4] = test system: Serratia marcescens ATCC13880
Method: as §1

[5] = test system: Staphylococcus aureus ATCC29247
Method: as §1

[6] = test system: Staphylococcus aureus ATCC6538P
Method: as §1

[7] = test system: Streptococcus agalactiae ATCC13813
Method: as §1

[8] = test system: Streptococcus pneumoniae ATCC49619
Method: as §1

[9] = test system: Streptococcus pneumoniae ATCC6301
Method: as §1

[10] = test system: Streptococcus pneumoniae ATCC6302
Method: as §1

[11] = test system: Streptococcus pneumoniae ATCC6303
Method: as §1

[12] = test system: Streptococcus pneumoniae ATCC6306
Method: as §1

[13] = test system: Streptococcus pyogenes ATCC12344
Method: as §1

[14] = test system: Streptococcus pyogenes ATCC12353
Method: as §1

[15] = test system: Streptococcus pyogenes ATCC12385
Method: as §1

## CN(C)[C@@H]1C(O)=C(C(N)=O)C(=O)[C@@]2(O)C(O)=C3C(=O)c4c(O)cccc4[C@@](C)(O)[C@H]3C[C@@H]12 [TC, Tetracycline]
[1]
  MIC: 0.2 µg/mL (≈ 0.45 µM)
[2]
  MIC: 0.2 µg/mL (≈ 0.45 µM)
[3]
  MIC: 12.5 µg/mL (≈ 28.1 µM)
[4]
  MIC: 100 µg/mL (≈ 225 µM)
[5]
  MIC: 0.78 µg/mL (≈ 1.76 µM)
[6]
  MIC: 0.2 µg/mL (≈ 0.45 µM)
[7]
  MIC: 0.2 µg/mL (≈ 0.45 µM)
[8]
  MIC: 0.1 µg/mL (≈ 0.225 µM)
[9]
  MIC: 0.1 µg/mL (≈ 0.225 µM)
[10]
  MIC: 0.2 µg/mL (≈ 0.45 µM)
[11]
  MIC: 0.1 µg/mL (≈ 0.225 µM)
[12]
  MIC: 0.2 µg/mL (≈ 0.45 µM)
[13]
  MIC: 0.2 µg/mL (≈ 0.45 µM)
[14]
  MIC: 0.2 µg/mL (≈ 0.45 µM)
[15]
  MIC: 0.2 µg/mL (≈ 0.45 µM)

From US20050175550A1, “Compositions for oral use” (priority 2000, published 2005)
